Assay results from the supplement of paper PMC8612539.
≈ marks a conversion by molar mass, not a printed value.

Tested on: Mannheimia haemolytica
Test: minimum inhibitory concentration (MIC)
Procedure: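 Broth microdilution MIC (Sensititre BOPO7F bovine plate, CLSI methods) of 19 antimicrobials against field isolates of P. multocida, M. haemolytica, H. somni (deep nasopharyngeal swabs) and E. coli, Enterococcus spp. (rectal swabs) from weaned dairy heifers. Incubation 16-24 h at 35 C. MIC is the lowest concentration preventing visible growth. Values with <= or > lie at the tested range limits. Trimethoprim-sulfamethoxazole is given as the trimethoprim component of a 1:19 mixture.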

CC[C@H]1OC(=O)C[C@@H](O)[C@H](C)[C@@H](O[C@@H]2O[C@H](C)[C@@H](O)[C@H](N(C)C)[C@H]2O)[C@@H](CCN2CCCCC2)C[C@@H](C)C(=O)/C=C/C(C)=C/[C@@H]1CN1CCCCC1 [Tildipirosin]
Conditions	minimum inhibitory concentration [µg/mL]
isolate (source animal id): 8	≤ 1
isolate (source animal id): 13	≤ 1
isolate (source animal id): 18	≤ 1
isolate (source animal id): 21	≤ 1
isolate (source animal id): 25	16 (≈ 21.8 µM)
isolate (source animal id): 27	16 (≈ 21.8 µM)
isolate (source animal id): 28	4 (≈ 5.45 µM)
isolate (source animal id): 30	≤ 1
isolate (source animal id): 31	4 (≈ 5.45 µM)
isolate (source animal id): 32	≤ 1
isolate (source animal id): 34	≤ 1
isolate (source animal id): 36	16 (≈ 21.8 µM)
isolate (source animal id): 37	16 (≈ 21.8 µM)
isolate (source animal id): 40	≤ 1
isolate (source animal id): 41	≤ 1
isolate (source animal id): 43	≤ 1
isolate (source animal id): 46	16 (≈ 21.8 µM)
isolate (source animal id): 49	16 (≈ 21.8 µM)
isolate (source animal id): 50	16 (≈ 21.8 µM)
isolate (source animal id): 51	≤ 1
isolate (source animal id): 52	≤ 1
isolate (source animal id): 53	≤ 1
isolate (source animal id): 55	≤ 1
isolate (source animal id): 56	≤ 1
isolate (source animal id): 57	> 16
isolate (source animal id): 100	16 (≈ 21.8 µM)
isolate (source animal id): 103	16 (≈ 21.8 µM)
isolate (source animal id): 107	16 (≈ 21.8 µM)
isolate (source animal id): 108	16 (≈ 21.8 µM)
isolate (source animal id): 112	> 16
isolate (source animal id): 113	> 16
isolate (source animal id): 121	16 (≈ 21.8 µM)
isolate (source animal id): 122	2 (≈ 2.72 µM)
isolate (source animal id): 123	> 16
isolate (source animal id): 126	> 16
isolate (source animal id): 133	> 16
isolate (source animal id): 135	> 16
isolate (source animal id): 138	> 16
isolate (source animal id): 141	> 16
isolate (source animal id): 142	> 16
isolate (source animal id): 145	4 (≈ 5.45 µM)
isolate (source animal id): 149	2 (≈ 2.72 µM)
isolate (source animal id): 151	2 (≈ 2.72 µM)
isolate (source animal id): 152	16 (≈ 21.8 µM)
isolate (source animal id): 154	≤ 1
isolate (source animal id): 159	> 16
isolate (source animal id): 162	> 16
isolate (source animal id): 170	2 (≈ 2.72 µM)
isolate (source animal id): 171	≤ 1
isolate (source animal id): 172	2 (≈ 2.72 µM)
isolate (source animal id): 173	2 (≈ 2.72 µM)
isolate (source animal id): 179	2 (≈ 2.72 µM)
isolate (source animal id): 180	≤ 1
isolate (source animal id): 183	≤ 1
isolate (source animal id): 186	≤ 1
isolate (source animal id): 187	≤ 1
isolate (source animal id): 188	≤ 1
isolate (source animal id): 190	≤ 1
isolate (source animal id): 191	2 (≈ 2.72 µM)
isolate (source animal id): 192	≤ 1
isolate (source animal id): 201	2 (≈ 2.72 µM)
isolate (source animal id): 202	4 (≈ 5.45 µM)
isolate (source animal id): 209	2 (≈ 2.72 µM)
isolate (source animal id): 211	2 (≈ 2.72 µM)
isolate (source animal id): 220	2 (≈ 2.72 µM)
isolate (source animal id): 221	2 (≈ 2.72 µM)
isolate (source animal id): 223	2 (≈ 2.72 µM)
isolate (source animal id): 233	8 (≈ 10.9 µM)
isolate (source animal id): 237	16 (≈ 21.8 µM)
isolate (source animal id): 241	16 (≈ 21.8 µM)
isolate (source animal id): 252	16 (≈ 21.8 µM)
isolate (source animal id): 253	16 (≈ 21.8 µM)
isolate (source animal id): 259	> 16
isolate (source animal id): 260	> 16
isolate (source animal id): 262	16 (≈ 21.8 µM)
isolate (source animal id): 282	> 16
isolate (source animal id): 287	> 16
isolate (source animal id): 288	≤ 1
isolate (source animal id): 291	≤ 1
isolate (source animal id): 293	16 (≈ 21.8 µM)
isolate (source animal id): 298	> 16
isolate (source animal id): 299	> 16
isolate (source animal id): 300	≤ 1
isolate (source animal id): 302	> 16
isolate (source animal id): 304	> 16
isolate (source animal id): 306	≤ 1
isolate (source animal id): 308	≤ 1
isolate (source animal id): 309	≤ 1
isolate (source animal id): 313	> 16
isolate (source animal id): 318	8 (≈ 10.9 µM)
isolate (source animal id): 320	≤ 1
isolate (source animal id): 321	> 16
isolate (source animal id): 323	> 16
isolate (source animal id): 324	16 (≈ 21.8 µM)
isolate (source animal id): 326	> 16
isolate (source animal id): 328	> 16
isolate (source animal id): 329	> 16
isolate (source animal id): 333	> 16
isolate (source animal id): 335	16 (≈ 21.8 µM)
isolate (source animal id): 338	16 (≈ 21.8 µM)
